Source: patent publication US20070099962A1, “5,6-Dihydropyrin-2-one compounds useful as inhibitors of thrombin” (priority 2003, published 2007)

Target: T1, Human α-thrombin (Homo sapiens, UniProt P00734)
T1 construct: Human α-thrombin, Sigma Chemical Co. or Hematologic Technologies; purchased Sigma Chemical Co. or Hematologic Technologies
Assay: Test B: Determination of Thrombin Inhibition with a Chromogenic, Robotic Assay
Assay type: biochemical
Settings: chromogenic substrate S-2366, 40 minutes incubation at 37° C.
Source text: The thrombin clotting time (TT) is expressed as absolute values (seconds) as well as the ratio of TT without inhibitor (TT0) to TT with inhibitor (TTi). The latter ratios (range 1-0) are plotted against the concentration of inhibitor (log transformed) and fitted to sigmoidal dose-response curves according to the equation y=a/[1+(x/IC50)^s] where: a=maximum range, i.e. 1; s=slope of the dose-response curve; and IC50=the concentration of inhibitor that doubles the clotting time. The calculations are processed on a PC using the software program GraFit Version 3, setting equation equal to: Start at 0, define end=1 (Erithacus Software, Robin Leatherbarrow, Imperial College of Science, London, UK). […]
The thrombin inhibitor potency is measured with a chromogenic substrate method, in a Plato 3300 robotic microplate processor (Rosys AG, CH-8634 Hombrechtikon, Switzerland), using 96-well, half volume microtitre plates (Costar, Cambridge, Mass., USA; Cat No 3690). Stock solutions of test substance in DMSO (72 μL), 0.1-1 mmol/L, are diluted serially 1:3 (24+48 μL) with DMSO to obtain ten different concentrations, which are analysed as samples in the assay. […] The linear absorbance increment during 40 minutes incubation at 37° C. is used for calculation of percentage inhibition for the test samples, as compared to blanks without inhibitor. […]

Row | Structure (SMILES) | IC50 [nM]
1 | CC1=C(CC(=O)NCc2ccc(C(=N)N)cc2)C(=O)N(NS(=O)(=O)c2cccc3ccccc23)CC1 [2(iii), N-(4-Carbamimidoylbenzyl)-2-[4-methyl-1-(naphthalene-1-sulfonylamino)-2-oxo-1,2,5,6-tetrahydropyridin-3-yl]acetamide] | 25.6
2 | CC1=C(CC(=O)NCc2ccc(C(=N)N)cc2)C(=O)N(NS(=O)(=O)Cc2ccccc2)CC1 [2(i), N-(4-Carbamimidoylbenzyl)-2-(4-methyl-2-oxo-1-phenylmethanesulfonylamino-1,2,5,6-tetrahydropyridin-3-yl)acetamide] | 240
